# Test results from patent US9464112B2, “Peptides having NF-κB inhibitory activity, or composition comprising same” (KNU-INDUSTRY COOPERATION FOUNDATION, priority 2012, dated 2016).
# Tests used:
# Assay type in all cases: cell-based
# [1] = test system: PGE2; test: PGE2 formation in UVB-irradiated human keratinocytes HaCaT (enzyme immunoassay); settings: peptide 0.1˜2 μM, dose-dependent
# Method: (§1) We evaluated the inhibitory activities of the peptide of the present invention on expressions of the representative pro-inflammatory factors, i.e., TNF-α and IL-1α, the expressions of which are induced by ultraviolet stimulation. Specifically, the HaCaT cells (Molecular Biology Engineering Lab, Chemical & Biochemical Engineering, Dongguk University) were irradiated with UVB (312 nm, 12.5 mJ/cm^2) and then treated with the peptide of SEQ ID NO: 1 in the concentrations of 0.1˜2 μM. At this time, the control group was treated with dexamethasone (Dex) having the immunosuppressive function, at the irradiation of UVB. After 48 hours, the cell extracts were subject to the Western blotting assay so as to measure the expressions of TNF-α and IL-1α.
# (§2) And also, the cell extracts were subject to the enzyme immunoassay so as to evaluate the inhibitory effects on formation of PGE2 (one of pro-inflammatory factors). For this assay, we also used the group treated with dexamethasone at the irradiation of UVB as a control group. In addition, the expression of COX-2 (which is a PGE2 formation-mediating enzyme) was measured through the Western blotting assay; and the results thereof are shown in FIG. 8.
# [2] = test system: IL-1α; test: IL-1α expression in UVB-irradiated human keratinocytes HaCaT (Western blotting); settings: UVB 312 nm 12.5 mJ/cm^2, 48 hours, peptide 0.1˜2 μM, dose-dependent
# Method: as §1
# [3] = test system: procollagen type-1; test: Procollagen type-1 expression in UVB-irradiated human dermal fibroblasts (Western blotting); settings: peptide 0.1˜2 μM, UVB 312 nm 12.5 mJ/cm^2, 48 hours, dose-dependent
# From the text: (§3) It is known that MMP-1, the expression of which is induced by ultraviolet stimulation in human dermal fibroblasts, degrades collagen fibers to facilitate cutaneous photoaging as well as wrinkle formation. Since the expression of MMP-1 is induced by NF-κB activation, we evaluate the inhibition thereof by the treatment of the peptides of the present invention, using human dermal fibroblasts (ATCC PCS-201-012, USA).
# (§4) The human dermal fibroblasts was irradiated with UVB (312 nm, 12.5 mJ/cm^2) and then treated with the peptide of SEQ ID NO: 1 in the concentrations of 0.1˜2 μM. After 48 hours, the cell extracts were subject to the Western blotting assay so as to measure the expressions of MMP-1 and procollagen type-1. […] Therefore, it can be seen that the peptide of the present invention can inhibit ultraviolet radiation-induced cutaneous photoaging.
# [4] = test system: TNF-α; test: TNF-α expression in UVB-irradiated human keratinocytes HaCaT (Western blotting); settings: UVB 312 nm 12.5 mJ/cm^2, 48 hours, peptide 0.1˜2 μM, dose-dependent
# Method: as §1
# [5] = test system: COX-2; test: COX-2 expression in UVB-irradiated human keratinocytes HaCaT (Western blotting); settings: peptide 0.1˜2 μM, dose-dependent
# Method: as §1, §2
# [6] = test system: MMP-1; test: MMP-1 expression in UVB-irradiated human dermal fibroblasts (Western blotting); settings: peptide 0.1˜2 μM, UVB 312 nm 12.5 mJ/cm^2, 48 hours, dose-dependent
# From the text: as §3, §4
substance,measurement,setting,value
"Arg-Phe-Arg (RFR; Peptide fragment) [SEQ ID NO: 1, peptide fragment derived from the NF-κB p65 subunit]",PGE2 formation increased by ultraviolet stimulation,[1],reduced
same,expression of IL-1α,[2],reduced
same,expression of procollagen type-1,[3],increased
same,expression of TNF-α,[4],reduced
same,expression of COX-2,[5],reduced
same,expression of MMP-1 increased by ultraviolet stimulation,[6],reduced
